One compound from paper PMC4786716, “Biophysical Characterization and Activity of Lymphostatin, a Multifunctional Virulence Factor of Attaching and Effacing Escherichia coli” (The Journal of Biological Chemistry, 2016) can be followed below.

The assay addresses T1, lymphostatin (LifA; rLifA) (Escherichia coli, UniProt B7UI23).
T1 construct: gene E2348C_3234; full-length, C-terminal His6 tag kept, expressed in E. cloni (E. coli K-12) from pRham; 3229 residues as printed, 365 kDa, monomer
The experiment in a line: intrinsic tryptophan fluorescence titration (ex […] nm, em […] nm). The class given is binding.

By Kd is commonly meant a measure of binding affinity in units of concentration. Higher therefore signals a looser complex. Turning to `CC(=O)N[C@H]1[C@@H](OP(=O)(O)OP(=O)(O)OC[C@H]2O[C@@H](n3ccc(=O)[nH]c3=O)[C@H](O)[C@@H]2O)O[C@H](CO)[C@@H](O)[C@@H]1O` [UDP-GlcNAc], the Kd was 120 ± 30 µM.
